Source: ChEMBL document CHEMBL2390872, “Synthesis and biological evaluation of Esaprazole analogues showing σ1 binding and neuroprotective properties in vitro” (Bioorg Med Chem, 2013)

Key:
in vitro = conditions: rat, liver microsomes
in vivo = conditions: rat, brain/plasma, po, 1600 mg/kg

SMILES	half-life (in vitro)	Kp at 2 h (in vivo)
O=C(CN1CCN2CCC[C@H]2C1)NC1CCCCC1	4.2 min	
CC(C)(C)CCNC(=O)CN1CCN(C(=O)C2CCCCC2)CC1	21 min	
O=C(CN1CCN2CCC[C@@H]2C1)NC1CCCCC1	8.2 min	
O=C(CCN1C[C@@H]2C[C@H]1CN2)NC1CCCCC1	45 min	
CCN1CCN(CC(=O)N(C)C2CCCC2)CC1C (racemic)	21 min	
O=C(CN1CCNCC1)NC1CCCCC1 [ESAPRAZOLE]	> 60 min	0.25
O=C(CCN1CCN(C(=O)C2CC2)CC1)NC1CCCCC1	> 60 min	
